Several values for one entry are separate records, joined by “and”; a condition that tells them apart may be missing. Equal values may be shown once. Read-outs that look alike come from different tables or passages of the source.
Assays:
[1] = system: HCoV-229E; assay: Antiviral activity in vitro, viral RNA copies by qRT-PCR, HCoV-229E in Huh-7 cells; format: cell-based; conditions: for EC50 (229E, Huh-7): inhibition at the concentration: replicates
[2] = system: HCoV-229E; assay: Antiviral activity in vitro, qRT-PCR, HCoV-229E in MRC-5 cells; format: cell-based; conditions: for HCoV-229E, MRC-5: inhibition at the concentration (Fig2B): replicates
[3] = system: HCoV-OC43; assay: Antiviral activity in vitro, qRT-PCR, HCoV-OC43 in RD cells; format: cell-based; conditions: for EC50 (OC43, RD): inhibition at the concentration: replicates
[4] = system: HCoV-OC43; assay: Antiviral activity in vitro, qRT-PCR, HCoV-OC43 in Huh-7 cells; format: cell-based; conditions: for HCoV-OC43, Huh-7: inhibition at the concentration (Fig2B): replicates
[5] = system: HCoV-OC43 spike protein; assay: Cell-cell fusion assay (HCoV-OC43 spike); format: cell-based; conditions: spike-transfected 293T cells with RD cells
Protocol: To obtain further insight into the stage at which DBM inhibits the replication of HCoV-OC43 and other HCoVs, RD cells were incubated with compounds, including DBM, remdesivir (RDV), and chloroquine (CQ), at different stages of viral infection. Viral RNA from the supernatant was extracted and quantitatively analysed via qRT-PCR. […] For the viral binding assay, cells were cultured in the presence or absence of DBM at different concentrations for 1 hour before being infected with HCoV-OC43 at an MOI of 50, and then were placed on ice for 2 hours for the viral particles to bind to the membrane of the host cells, followed by washing with PBS. […] In addition to binding to receptors from host cells, the spike proteins of HCoV-OC43 could also trigger membrane fusion when HCoV-OC43 spike plasmid-transfected 293T cells were seeded together with RD cells as target cells, and the addition of DBM had no effect on this process (S5C Fig). To examine whether DBM inhibits viral internalisation, cells were inoculated with HCoV-OC43 for 1 hour on ice before being treated with either DBM or DMSO, and CQ was included to prevent endosomal acidification. […] To determine whether DBM influences viral release, we quantified viral RNA both intracellularly and in the supernatant. […]

[6] = system: HCoV-OC43; format: cell-based
[7] = target: caspase-6 (Homo sapiens, UniProt P55212); format: cell-based; conditions: STS-treated cells
[8] = system: IFN signalling; assay: IFNB1 and IFN-stimulated gene expression (qPCR); format: cell-based
[9] = system: HCoV-OC43; assay: HCoV-OC43 nucleocapsid protein and caspase-6 in infected cells (Western blot); format: cell-based; conditions: cells pretreated with serially diluted compound
[10] = system: HCoV-OC43; assay: Cytokine gene expression in brains and spinal cords of infected mice; format: in vivo, BALB/c suckling mice; conditions: for CCL2 gene expression / CXCL10 gene expression / IL1B gene expression / IL6 gene expression / TNF gene expression: one value per animal
[11] = system: HCoV-OC43; conditions: DBM 400 mpk QD

Sequence of caspase-6 (P55212 194-293): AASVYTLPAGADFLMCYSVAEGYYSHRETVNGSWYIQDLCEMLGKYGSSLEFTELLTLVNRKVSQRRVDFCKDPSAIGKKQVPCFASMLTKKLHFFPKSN
Sequence of caspase-6 (P55212 24-179): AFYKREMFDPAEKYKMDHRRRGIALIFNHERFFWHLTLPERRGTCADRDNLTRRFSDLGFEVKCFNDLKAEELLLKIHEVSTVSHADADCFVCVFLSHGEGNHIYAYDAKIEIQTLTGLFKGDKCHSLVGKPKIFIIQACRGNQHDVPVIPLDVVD

SMILES: O=C(CC(=O)c1ccccc1)c1ccccc1 [DBM, dibenzoylmethane]
- EC50 ([1]; Human coronavirus 229E, Huh-7, 24 h, read-out: EC50 HCoV-229E (Huh-7)): 6710 nM
- EC50 (229E, Huh-7): inhibition at the concentration ([1]; conc. 0.1 (unit not given)): 60.8 and 22.3 and 20.2
- EC50 (229E, Huh-7): inhibition at the concentration ([1]; conc. 0.2 (unit not given)): 25.5 and 35.2
- EC50 (229E, Huh-7): inhibition at the concentration ([1]; conc. 0.7 (unit not given)): 37.7 and 44.1
- EC50 (229E, Huh-7): inhibition at the concentration ([1]; conc. 2.2 (unit not given)): 13.1 and 6.1 and 18.7
- EC50 (229E, Huh-7): inhibition at the concentration ([1]; conc. 6.7 (unit not given)): 65 and 69.4 and 38.7
- EC50 (229E, Huh-7): inhibition at the concentration ([1]; conc. 20 (unit not given)): 91.1 and 94.4 and 99.5
- EC50 ([2]; Human coronavirus 229E, MRC5, 24 h, read-out: EC50 HCoV-229E (MRC-5)): 700 nM
- HCoV-229E, MRC-5: inhibition at the concentration (Fig2B) ([2]; conc. 0.1 (unit not given)): 0.8 and 1.1 and 0.3
- HCoV-229E, MRC-5: inhibition at the concentration (Fig2B) ([2]; conc. 0.2 (unit not given)): 1.4 and -2.2 and 0.6
- HCoV-229E, MRC-5: inhibition at the concentration (Fig2B) ([2]; conc. 0.7 (unit not given)): 17.4 and 32.7 and 56.6
- HCoV-229E, MRC-5: inhibition at the concentration (Fig2B) ([2]; conc. 2.2 (unit not given)): 69.7 and 42.7 and 53.8
- HCoV-229E, MRC-5: inhibition at the concentration (Fig2B) ([2]; conc. 6.7 (unit not given)): 86.0 and 92.7 and 89.8
- HCoV-229E, MRC-5: inhibition at the concentration (Fig2B) ([2]; conc. 20.0 (unit not given)): 94.3 and 95.3 and 95.9
- EC50 ([3]; Betacoronavirus 1, OC43, RD, 24 h, read-out: EC50 HCoV-OC43 (RD)): 350 nM
- Viral RNA copies (Fig6B) ([3]; OC43, concentration 4): 7.43E+03 and 9.55E+03 and 9.54E+03
- Viral RNA copies (Fig6B) ([3]; OC43, concentration 20): 3.88E+03 and 6.38E+03 and 7.34E+03
- EC50 (OC43, RD): inhibition at the concentration ([3]; conc. 0.1 (unit not given)): -75.5 and -76.6 and -100.8
- EC50 (OC43, RD): inhibition at the concentration ([3]; conc. 0.2 (unit not given)): 23.1 and 21.4 and 22.1
- EC50 (OC43, RD): inhibition at the concentration ([3]; conc. 0.7 (unit not given)): 88.5 and 91.5 and 92
- EC50 (OC43, RD): inhibition at the concentration ([3]; conc. 2.2 (unit not given)): 99.6
- EC50 (OC43, RD): inhibition at the concentration ([3]; conc. 6.7 (unit not given)): 99.9
- EC50 (OC43, RD): inhibition at the concentration ([3]; conc. 20 (unit not given)): 99.8
- EC50 ([4]; Betacoronavirus 1, OC43, Huh-7, 24 h, read-out: EC50 HCoV-OC43 (Huh-7)): 90 nM
- HCoV-OC43, Huh-7: inhibition at the concentration (Fig2B) ([4]; conc. 0.1 (unit not given)): 51.3 and 53.7 and 47.2
- HCoV-OC43, Huh-7: inhibition at the concentration (Fig2B) ([4]; conc. 0.2 (unit not given)): 64.6 and 65.3 and 60.0
- HCoV-OC43, Huh-7: inhibition at the concentration (Fig2B) ([4]; conc. 0.7 (unit not given)): 95.4 and 95.1 and 94.4
- HCoV-OC43, Huh-7: inhibition at the concentration (Fig2B) ([4]; conc. 2.2 (unit not given)): 98.2 (2×) and 98.0
- HCoV-OC43, Huh-7: inhibition at the concentration (Fig2B) ([4]; conc. 6.7 (unit not given)): 98.4
- HCoV-OC43, Huh-7: inhibition at the concentration (Fig2B) ([4]; conc. 20.0 (unit not given)): 98.3 (2×) and 98.5
- spike-triggered membrane fusion [5]: had no effect
- antiviral activity in CASP6 knockout cell pools ([6]; RD cells): decreased
- Viral inhibition (Fig5K) ([6]; concentration 2, RD-CASP6 KO cells): 35.0 and 37.4 and 35.2
- Viral inhibition (Fig5K) ([6]; concentration 2, RD-Scramble cells): 87.9 and 90.6 and 92.3
- Viral inhibition (Fig5K) ([6]; concentration 20, RD-Scramble cells): 81.0 and 81.9 and 83.3
- levels of cleaved HCoV-OC43 and SARS-CoV-2 nucleocapsid proteins [7]: significantly reduces
- IFITM3 expression [8]: 1.19 and 1.66 and 1.36
- IFNB1 expression [8]: 6.09 and 4.34 and 4.64
- OAS1 expression [8]: 1.74 and 2.26 and 1.65
- suppression of IFN signalling by caspase-6 and nucleocapsid proteins (IFNB1, ISGs) [8]: reversed the suppression of IFN signalling
- IFN signalling in HCoV-OC43-infected cells ([8]; IFNB1 and ISG mRNA): enhanced IFN signalling
- virus replication (nucleocapsid protein, Western blot) [9]: inhibited virus replication
- CCL2 gene expression ([10]; BRAIN, DBM 100 mpk): 1.51 and 1.54 and 1.00 and 1.20 and 1.62 and 1.74
- CXCL10 gene expression ([10]; BRAIN, DBM 100 mpk): 2.90 and 3.33 (2×) and 2.35 and 2.81 and 3.27
- IL1B gene expression ([10]; BRAIN, DBM 100 mpk): 1.23 and 1.14 (2×) and 0.87 and 0.89 and 1.66
- IL6 gene expression ([10]; BRAIN, DBM 100 mpk): 0.95 and 1.15 and 0.67 and 0.94 and 1.52 and 1.33
- TNF gene expression ([10]; BRAIN, DBM 100 mpk): 1.36 (2×) and 0.92 and 0.88 and 1.72 and 1.28
- CCL2 gene expression ([10]; BRAIN, DBM 200 mpk): 1.46 and -0.88 and 0.68 and 1.08 and 1.88
- CXCL10 gene expression ([10]; BRAIN, DBM 200 mpk): 3.15 and -0.32 and 2.05 and 2.44 and 3.30
- IL1B gene expression ([10]; BRAIN, DBM 200 mpk): 1.27 and -1.00 and 0.43 and 0.66 and 1.46
- IL6 gene expression ([10]; BRAIN, DBM 200 mpk): 1.26 and -0.71 and 0.30 and 0.34 and 1.23
- TNF gene expression ([10]; BRAIN, DBM 200 mpk): 1.14 and -1.10 and 0.49 and 0.84 and 1.31
- CCL2 gene expression ([10]; BRAIN, DBM 500 mpk): 1.19 and 0.29 and 0.89 and 1.43
- CXCL10 gene expression ([10]; BRAIN, DBM 500 mpk): 2.39 and 1.30 and 1.07 and 2.91
- IL1B gene expression ([10]; BRAIN, DBM 500 mpk): 1.46 and 0.54 and 0.85 and 1.71
- IL6 gene expression ([10]; BRAIN, DBM 500 mpk): 0.93 and 0.71 and 0.92 and 1.17
- TNF gene expression ([10]; BRAIN, DBM 500 mpk): 1.05 and 0.22 and 0.74 and 1.31
- inflammation (cytokine gene expression) in the brain and spinal cord ([10]; CCL2, CXCL10, IL-1β, IL-6, TNF-α, 5 dpi): dramatically reduced inflammation
- CCL2 gene expression ([10]; SPINAL CORD, DBM 100 mpk): 0.10 and -0.50 and -0.53 and -0.21 and -0.06 and -0.89
- CXCL10 gene expression ([10]; SPINAL CORD, DBM 100 mpk): 2.03 and 1.48 and 0.34 and 0.55 and 1.02 and 0.66
- IL1B gene expression ([10]; SPINAL CORD, DBM 100 mpk): -0.76 and -1.28 and -0.98 and -0.97 and -0.64 and -1.78
- IL6 gene expression ([10]; SPINAL CORD, DBM 100 mpk): 1.39 and -0.72 and 0.41 and 1.02 and 0.87 and 0.47
- TNF gene expression ([10]; SPINAL CORD, DBM 100 mpk): 0.47 and -0.10 and -0.18 and 0.26 and 0.80 and -0.63
- CCL2 gene expression ([10]; SPINAL CORD, DBM 200 mpk): -0.12 and -1.42 and -0.38 and -0.65 and 0.03
- CXCL10 gene expression ([10]; SPINAL CORD, DBM 200 mpk): 1.47 and -1.58 and 0.55 and 0.23 and 1.42
- IL1B gene expression ([10]; SPINAL CORD, DBM 200 mpk): -0.83 and -1.94 and -0.93 and -0.47 and -0.26
- IL6 gene expression ([10]; SPINAL CORD, DBM 200 mpk): 0.59 and -0.46 and 0.79 and 0.02 and 0.49
- TNF gene expression ([10]; SPINAL CORD, DBM 200 mpk): -0.40 and -0.33 and -1.12 and -0.23 and 0.63
- CCL2 gene expression ([10]; SPINAL CORD, DBM 500 mpk): 2.46 and 1.15 and -0.63 and 0.95
- CXCL10 gene expression ([10]; SPINAL CORD, DBM 500 mpk): 3.10 and 2.34 and 0.15 and 1.92
- IL1B gene expression ([10]; SPINAL CORD, DBM 500 mpk): 2.44 and 0.22 and -1.51 and 0.43
- IL6 gene expression ([10]; SPINAL CORD, DBM 500 mpk): 3.07 and 2.18 and -0.81 and 1.64
- TNF gene expression ([10]; SPINAL CORD, DBM 500 mpk): 3.77 and 1.80 and -0.57 and 1.44
- body weight loss during the experiment ([11]; VV116 25 mpk QD): did not show any body weight loss
- viral copy numbers in the brain, lungs, and kidneys compared with the vehicle group ([11]; 5 days post infection): significantly fewer viral copy numbers
- viral load in the brains lower than in the vehicle group ([11]; Day 5): approximately 6 logs
